Results: patent US4309559A, “Sulphonamides useful as pesticides” (FBC Limited, priority 1977, dated 1982)

Legend:
[1] = tested on: Peas (Pisum sativum); test: Post-emergence foliar spray, herbicidal/growth regulant response, peas; type: in vivo; settings: Lathyrus oleraceus, 168 h, foliar spray 11.2 kg/ha, 7 days, 0=no effect, 100=complete kill, read-out: herbicidal or growth regulant response index
Method: (§1) Seeds of the plant species listed below were sown in anodised aluminium pans, 19 cm long×9.5 cm wide×5 cm deep, containing John Innes I potting compost. They were then watered and placed in a controlled environment room (22° C.; 65-85% relative humidity; 14 hours per day artificial illumination at 13,000 lux). Fourteen days after sowing, the seedlings received a foliar spray of a compound listed below, formulated as a solution in 1:1 by volume aqueous acetone. The concentration of active ingredient and volume of application were adjusted so as to be equivalent to a rate of 11.2 kg/ha in 450 liters per hectare. After seven days growth in the controlled environment room, the plants were visually assessed for any herbicidal or growth regulant response. All differences from the untreated control were scored according to an index where 0=no effect and 100=complete kill.
(§2) The product of Example 95 was tested according to the procedure of Examples 49-55.

[2] = tested on: French beans (Phaseolus vulgaris); test: Post-emergence foliar spray, herbicidal/growth regulant response, French beans; type: in vivo; settings: foliar spray 11.2 kg/ha, 7 days, 0=no effect, 100=complete kill
Method: as §1, §2

[3] = tested on: Tomato (Lycopersicon esculentum); test: Pre-emergence soil surface spray, tomato; type: in vivo; settings: soil surface spray 2.8 kg/ha, 21 days, 0=no effect, 100=complete kill
Source text: (§3) Seeds of the plant species listed below were sown in John Innes I potting compost in aluminium pans, 19 cm long×9.5 cm wide×5.0 cm high, one species per pan. The soil surface was then sprayed with a compound listed below, formulated as a solution in 1:1 by volume aqueous acetone except for the compound of Example 44 which was formulated as an aqueous suspension containing 1000 parts per million of the wetting agent Lissapol NX (nonylphenol/ethylene oxide condensate). Each compound was applied at a rate of 2.8 kg of active ingredient per hectare in 450 liters of spray liquid per hectare. The pans were then watered, and placed in a controlled environment room (22° C., relative humidity 65-85%, 14 hours per day artificial illumination at 17,000 lux) for 21 days. The plants were then visually assessed for any growth regulatory or herbicidal effects. All differences from an untreated control were scored on a scale from 0-100, where 0 signifies no effect and 100 signifies complete kill.

[4] = tested on: Maize (Zea mays); test: Soil incorporation (attaclay/sand dust), growth regulatory or herbicidal effects, maize; type: in vivo; settings: 504 h, soil incorporation 26 ppm, 21 days, 0=no effect, 100=complete kill, read-out: growth regulatory or herbicidal effect score
Procedure, shortened: (§4)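 Active ingredient formulated as attaclay/sand dust and mixed into John Innes I potting compost at 26 or 130 ppm w/v (about 11.2 or 56 kg a.i./ha cultivated to 5 cm). Seeds sown in treated soil, grown 21 days at 22° C, 65-85% RH, 14 h light at 13,000 lux; visual score 0-100 versus untreated control.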

[5] = tested on: Crabgrass (Digitaria sanguinalis); test: Pre-emergence soil surface spray, crabgrass; type: in vivo; settings: soil surface spray 2.8 kg/ha, 21 days, 0=no effect, 100=complete kill
Source text: as §3

[6] = tested on: Barley (Hordeum vulgare); test: Pre-emergence soil surface spray, barley; type: in vivo; settings: soil surface spray 2.8 kg/ha, 21 days, 0=no effect, 100=complete kill
Source text: as §3

[7] = tested on: Sugarbeet (Beta vulgaris); test: Post-emergence foliar spray, herbicidal/growth regulant response, sugarbeet; type: in vivo; settings: 168 h, foliar spray 11.2 kg/ha, 7 days, 0=no effect, 100=complete kill, read-out: herbicidal or growth regulant response index
Method: as §1, §2

[8] = tested on: Peas (Pisum sativum); test: Soil incorporation (attaclay/sand dust), growth regulatory or herbicidal effects, peas; type: in vivo; settings: Lathyrus oleraceus, 504 h, soil incorporation 26 ppm, 21 days, 0=no effect, 100=complete kill, read-out: growth regulatory or herbicidal effect score
Procedure, shortened: as §4

[9] = tested on: Oats (Avena sativa); test: Soil incorporation (attaclay/sand dust), growth regulatory or herbicidal effects, oats; type: in vivo; settings: 504 h, soil incorporation 26 ppm, 21 days, 0=no effect, 100=complete kill, read-out: growth regulatory or herbicidal effect score
Procedure, shortened: as §4

[10] = tested on: Ryegrass (Lolium perenne); test: Soil incorporation (attaclay/sand dust), growth regulatory or herbicidal effects, ryegrass; type: in vivo; settings: 504 h, soil incorporation 26 ppm, 21 days, 0=no effect, 100=complete kill, read-out: growth regulatory or herbicidal effect score
Procedure, shortened: as §4

[11] = tested on: Chickweed (Stellaria media); test: Pre-emergence soil surface spray, chickweed; type: in vivo; settings: soil surface spray 2.8 kg/ha, 21 days, 0=no effect, 100=complete kill
Source text: as §3

[12] = tested on: Fathen (Chenopodium album); test: Pre-emergence soil surface spray, fathen; type: in vivo; settings: soil surface spray 2.8 kg/ha, 21 days, 0=no effect, 100=complete kill
Source text: as §3

[13] = tested on: Oat (Avena sativa); test: Post-emergence foliar spray, herbicidal/growth regulant response, oat; type: in vivo; settings: 168 h, foliar spray 11.2 kg/ha, 7 days, 0=no effect, 100=complete kill, read-out: herbicidal or growth regulant response index
Method: as §1, §2

[14] = tested on: Wild Oat (Avena fatua); test: Pre-emergence soil surface spray, wild oat; type: in vivo; settings: soil surface spray 2.8 kg/ha, 21 days, 0=no effect, 100=complete kill
Source text: as §3

[15] = tested on: Mustard (Sinapis alba); test: Post-emergence foliar spray, herbicidal/growth regulant response, mustard; type: in vivo; settings: 168 h, foliar spray 11.2 kg/ha, 7 days, 0=no effect, 100=complete kill, read-out: herbicidal or growth regulant response index
Method: as §1, §2

[16] = tested on: Linseed (Linum usitatissimum); test: Post-emergence foliar spray, herbicidal/growth regulant response, linseed; type: in vivo; settings: 168 h, foliar spray 11.2 kg/ha, 7 days, 0=no effect, 100=complete kill, read-out: herbicidal or growth regulant response index
Method: as §1, §2

[17] = tested on: Mustard (Sinapis alba); test: Pre-emergence soil surface spray, mustard; type: in vivo; settings: soil surface spray 2.8 kg/ha, 21 days, 0=no effect, 100=complete kill
Source text: as §3

[18] = tested on: Ryegrass (Lolium perenne); test: Post-emergence foliar spray, herbicidal/growth regulant response, ryegrass; type: in vivo; settings: 168 h, foliar spray 11.2 kg/ha, 7 days, 0=no effect, 100=complete kill, read-out: herbicidal or growth regulant response index
Method: as §1, §2

[19] = tested on: Barnyardgrass (Echinochloa crus-galli); test: Pre-emergence soil surface spray, barnyardgrass; type: in vivo; settings: soil surface spray 2.8 kg/ha, 21 days, 0=no effect, 100=complete kill
Source text: as §3

[20] = tested on: Blackgrass (Alopecurus myosuroides); test: Pre-emergence soil surface spray, blackgrass; type: in vivo; settings: soil surface spray 2.8 kg/ha, 21 days, 0=no effect, 100=complete kill
Source text: as §3

[21] = tested on: Carrot (Daucus carota); test: Pre-emergence soil surface spray, carrot; type: in vivo; settings: soil surface spray 2.8 kg/ha, 21 days, 0=no effect, 100=complete kill
Source text: as §3

[22] = tested on: Cotton (Gossypium sp.); test: Pre-emergence soil surface spray, cotton; type: in vivo; settings: soil surface spray 2.8 kg/ha, 21 days, 0=no effect, 100=complete kill
Source text: as §3

[23] = tested on: Wheat (Triticum aestivum); test: Pre-emergence soil surface spray, wheat; type: in vivo; settings: soil surface spray 2.8 kg/ha, 21 days, 0=no effect, 100=complete kill
Source text: as §3

[24] = tested on: Mustard (Sinapis alba); test: Soil incorporation (attaclay/sand dust), growth regulatory or herbicidal effects, mustard; type: in vivo; settings: 504 h, soil incorporation 26 ppm, 21 days, 0=no effect, 100=complete kill, read-out: growth regulatory or herbicidal effect score
Procedure, shortened: as §4

[25] = tested on: Linseed (Linum usitatissimum); test: Soil incorporation (attaclay/sand dust), growth regulatory or herbicidal effects, linseed; type: in vivo; settings: 504 h, soil incorporation 26 ppm, 21 days, 0=no effect, 100=complete kill, read-out: growth regulatory or herbicidal effect score
Procedure, shortened: as §4

[26] = tested on: acetylcholinesterase; test: Standard test indicative of insecticidal activity: inhibition of acetylcholinesterase; type: biochemical; settings: 100 micromolar concentration
[27] = tested on: cucumber powdery mildew Erysiphe cichoracearum; test: Cucumber powdery mildew control on cucumber plants; type: in vivo; settings: 2000 mg per liter; soil and leaves; 14 days; controls less than 5%
[28] = tested on: Xanthomonas malvacearum; test: Bacterial growth in dextrose nutrient broth; type: cell-based; settings: 200 ppm weight/volume; 8 days incubation at 25° C.
Method: A 1% suspension/solution of the product of Example 157 in polyethylene glycol (Carbowax 400) was added to a dextrose nutrient broth to give a concentration of 1,000 parts per million (ppm) weight/volume of medium. Dilution in test tubes was then carried out to give a concentration of 200 ppm weight/volume of medium. To 8 ml quantities of broth was added 0.2 ml of a dense broth culture of the bacterium causing black arm of cotton, Xanthomonas malvacearum. After 8 days incubation at 25° C., all the broth specimens were examined for signs of bacterial growth.

[29] = tested on: Pythium ultimum; test: Cabbage seedling emergence in soil infected with Pythium ultimum; type: in vivo, Pythium ultimum (on cabbage, variety Flower of Spring); settings: 6 days, 25° C.
Procedure, shortened: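 Potting compost infested with one-week maize meal/sand Pythium ultimum culture (3 kg per 12 l soil), drenched with compound in Tween 20/water at 1500, 500, 150 or 50 ppm; 15 cabbage seeds sown per carton, 25° C, four replicates. After six days, soil-surface fungal growth and seedling emergence scored 0-8.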

[30] = tested on: vine downy mildew, Plasmopara viticola; test: Vine downy mildew control on vine plants (application to soil and leaves); type: in vivo; settings: 2000 ppm, 12 days, controls less than 5%
Method: Aqueous acetone solutions of each of the compounds listed in the Table below, containing 2000 parts per million (ppm), together with 125 ppm of a suitable wetting agent, were applied to the soil surrounding the roots and leaves of vine plants having five fully expanded leaves.
The treated plants, together with controls treated with wetting agent alone, were inoculated 24 hours after the chemical application with an aqueous suspension of sporangia of the disease organism known as vine downy mildew, Plasmopara viticola.

[31] = tested on: Pythium ultimum; test: Fungal growth on the surface of soil infected with damping-off disease organism; type: in vivo; settings: 6 days, 25° C.
[32] = tested on: cabbage seeds, variety Flower of Spring; test: Phytotoxicity of chemical alone on cabbage seed germination (chemical only soil treatment); type: in vivo
Method: Fifteen cabbage seeds, variety Flower of Spring, were placed in a circular depression in the treated infected soil, recovered, and the whole sealed with a plastic cap. The cartons were then placed in a constant temperature room at 25° C.±1° C. Four replications per treatment were made, with one additional treatment where seeds were sown in soil which was chemically treated only, i.e. there was no infection. This latter treatment was included to measure the direct effect of the chemical on the germination of the seed. and are given in the following table. Any phytotoxicity induced by the chemical alone is deduced from the chemical only soil treatment.

[33] = 100 ppm, 0-8 scale (Examples 233, 234)
[34] = 300 ppm, 0-8 scale (Examples 233, 234, 268)

Compound	pest or weed control at 11200 g/ha [1] [%]	herbicidal or growth regulant response index [2]	growth regulatory or herbicidal effect score [3]	plant injury at 26 µg/mL [4] [%]	growth regulatory or herbicidal effect score [5]	growth regulatory or herbicidal effect score [6]	plant injury at 11200 g/ha [7] [%]	pest or weed control at 26 µg/mL [8] [%]	plant injury at 26 µg/mL [9] [%]	pest or weed control at 26 µg/mL [10] [%]	growth regulatory or herbicidal effect score [11]	growth regulatory or herbicidal effect score [12]	plant injury at 11200 g/ha [13] [%]	growth regulatory or herbicidal effect score [14]	pest or weed control at 11200 g/ha [15] [%]	pest or weed control at 11200 g/ha [16] [%]	growth regulatory or herbicidal effect score [17]	pest or weed control at 11200 g/ha [18] [%]	growth regulatory or herbicidal effect score [19]	growth regulatory or herbicidal effect score [20]	also measured
CCOC(=O)C(C)N(c1c(C)cccc1Cl)S(C)(=O)=O (stereo not drawn) [Example 22]	5	80	40	50	90	0	80	0	50	90	50	100	5	0	80	30	90	5	0	40	growth regulatory or herbicidal effect score [21]: 0; growth regulatory or herbicidal effect score [22]: 0; growth regulatory or herbicidal effect score [23]: 0; pest or weed control at 26 µg/mL [24]: 100%; pest or weed control at 26 µg/mL [25]: 100%
CNC(=O)ON=C(C)CN(c1c(C)cccc1C)S(C)(=O)=O [Example 248, N-[2-(methylcarbamoyloxyimino)propyl]-2',6'-dimethylmethanesulphonanilide]	–	–	–	–	–	–	–	–	–	–	–	–	–	–	–	–	–	–	–	–	inhibition of acetylcholinesterase [26]: 30%
CCOC(=O)C(C)N(c1c(C)cccc1C)S(C)(=O)=O (stereo not drawn) [Example 15]	5	70	20	50	100	0	90	0	20	100	30	100	5	5	90	90	10	10	40	20	fungus control, cucumber powdery mildew [27]: 82%; growth regulatory or herbicidal effect score [21]: 0; growth regulatory or herbicidal effect score [22]: 0; growth regulatory or herbicidal effect score [23]: 0; pest or weed control at 26 µg/mL [24]: 100%; pest or weed control at 26 µg/mL [25]: 70%
CS(=O)(=O)N(CC(N)=S)c1cccc(Cl)c1Cl [Example 157]	–	–	–	–	–	–	–	–	–	–	–	–	–	–	–	–	–	–	–	–	bacterial growth [28]: No growth occurred
COC(C)(CN(c1c(C)cccc1Cl)S(C)(=O)=O)OC [Example 222, N-(2,2-dimethoxypropyl)-2'-chloro-6'-methyl-methanesulphonanilide]	–	–	–	–	–	–	–	–	–	–	–	–	–	–	–	–	–	–	–	–	Germination Score [29, 33]: 1 (20-34% inhibition); Germination Score [29, 34]: 1 (20-34% inhibition); % Control Vine Downing Mildew [30]: 94%; Mycelial Control Score [31, 33]: 3 (45-54% inhibition); Mycelial Control Score [31, 34]: 4 (55- 64% inhibition); Phytotoxicity Score ([32]; 100 ppm): 0; Phytotoxicity Score ([32]; 300 ppm): 0
